In US20060110743A1, “Drug evolution: drug design at hot spots” (priority 2004, published 2006):

Experiment: UV absorbance (UV spectra), sunscreen properties
Type: physicochemical
Source text: FIG. 1 through 8 show UV spectra of 111 compounds sharing PABA “hot building block”, their 16 synthetic intermediates, and one compound with salicylic acid building block. Reference numerals identify compounds according to the numbering adopted in the Experimental section and elsewhere in the specification.
UV-B (290-320 nm) radiation is known to be harmful for human skin. Acute negative effects include inflammation, sunburns, pigmentation changes and hyperplasia. Chronic negative effects include photoaging, immunosuppression and photocarcinogenesis, including squamous cells, basal cells and melanoma skin cancer. The UV-B radiation is also responsible for 98% of cases of delayed erythema development.
Various sunscreen agents have been developed to protect human skin from this harmful UV-B radiation. One known class of such UV-B sunscreen agents is PABA and its various derivatives. Their UV-protecting properties are due to their strong UV absorbance (e266=15,000 for p-aminobenzoic acid). […] As such, these compounds are useful as sunscreen agents.

SMILES: Nc1ccc(C(=O)O)cc1 [Compound (59), 4-Aminobenzoic acid]
- UV absorbance e266: 15,000
